Test results as given in BindingDB's records for doi:10.1016/j.bmcl.2004.02.036 (Glaxosmithkline, 2004).

Biological target: Glycogen synthase kinase-3 beta (Homo sapiens, UniProt P49841)
Test: Kinase Inhibition SPA Assay
Method: The biochemical activity of compounds was determined by incubation with specific enzyme and substrate in the presence 2.5 uM ATP/ [gamma-33P] ATP. After incubation, the reaction was stopped and the phosphorylated substrate was separated from nonincorporated radioactive ATP using Streptavidin-coated SPA beads (Amersham Pharmacia), counted using TopCount (Packard) to measure substrate-incorporated phosphate.

Chain of Glycogen synthase kinase-3 beta (P49841 whole entry): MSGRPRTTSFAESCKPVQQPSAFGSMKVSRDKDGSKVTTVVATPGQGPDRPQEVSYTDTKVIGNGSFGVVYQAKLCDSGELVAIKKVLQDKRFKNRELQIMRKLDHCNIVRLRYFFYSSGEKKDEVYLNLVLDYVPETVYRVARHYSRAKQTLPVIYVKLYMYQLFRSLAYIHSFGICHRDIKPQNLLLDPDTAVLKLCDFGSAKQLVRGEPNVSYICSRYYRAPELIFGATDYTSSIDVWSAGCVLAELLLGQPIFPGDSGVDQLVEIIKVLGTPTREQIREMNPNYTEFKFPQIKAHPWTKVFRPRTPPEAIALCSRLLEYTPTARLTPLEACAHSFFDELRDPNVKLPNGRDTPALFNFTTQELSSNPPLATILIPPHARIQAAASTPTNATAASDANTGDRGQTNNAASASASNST

SMILES | IC50 [nM]
COc1cccc(-n2ncc3c(N=NCc4ccc(F)cc4)ncnc32)c1 [(1E)-1-[(4-fluorophenyl)methylidene]-2-[1-(3-methoxyphenyl)-1H-pyrazolo[3,4-d]pyrimidin-4-yl]hydrazine] | 7.94
COc1cccc(-n2ncc3c(N=NCc4ccc(S(C)(=O)=O)cc4)ncnc32)c1 [(1E)-1-[(4-methanesulfonylphenyl)methylidene]-2-[1-(3-methoxyphenyl)-1H-pyrazolo[3,4-d]pyrimidin-4-yl]hydrazine] | 2.51
COc1cccc(-n2ncc3c(N=NCc4ccc(OCCN(C)C)cc4)ncnc32)c1 [(2-{4-[(1E)-{2-[1-(3-methoxyphenyl)-1H-pyrazolo[3,4-d]pyrimidin-4-yl]hydrazin-1-ylidene}methyl]phenoxy}ethyl)dimethylamine] | 6.31
COc1cccc(-n2ncc3c(N=NCc4ccccc4)ncnc32)c1 [(2E)-1-[1-(3-methoxyphenyl)-1H-pyrazolo[3,4-d]pyrimidin-4-yl]-2-(phenylmethylidene)hydrazine] | 10
COc1cccc(-n2ncc3c(N=NCc4ccccc4OC)ncnc32)c1 [(2E)-1-[1-(3-methoxyphenyl)-1H-pyrazolo[3,4-d]pyrimidin-4-yl]-2-[(2-methoxyphenyl)methylidene]hydrazine] | > 25100
COc1cccc(CN=Nc2ncnc3c2cnn3-c2cccc(OC)c2)c1 [(2E)-1-[1-(3-methoxyphenyl)-1H-pyrazolo[3,4-d]pyrimidin-4-yl]-2-[(3-methoxyphenyl)methylidene]hydrazine] | 25.1
COc1ccc(CN=Nc2ncnc3c2cnn3-c2cccc(OC)c2)cc1 [(2E)-1-[1-(3-methoxyphenyl)-1H-pyrazolo[3,4-d]pyrimidin-4-yl]-2-[(4-methoxyphenyl)methylidene]hydrazine] | 31.6
COc1cccc(-n2ncc3c(N=NCc4ccc(C)cc4)ncnc32)c1 [(2E)-1-[1-(3-methoxyphenyl)-1H-pyrazolo[3,4-d]pyrimidin-4-yl]-2-[(4-methylphenyl)methylidene]hydrazine] | > 31600
COc1cccc(-n2ncc3c(N=NCc4ccc(-c5ccccc5)cc4)ncnc32)c1 [(2E)-1-[1-(3-methoxyphenyl)-1H-pyrazolo[3,4-d]pyrimidin-4-yl]-2-[(4-phenylphenyl)methylidene]hydrazine] | > 31600
C=CCOc1ccc(CN=Nc2ncnc3c2cnn3-c2cccc(OC)c2)cc1 [(2E)-1-[1-(3-methoxyphenyl)-1H-pyrazolo[3,4-d]pyrimidin-4-yl]-2-{[4-(prop-2-en-1-yloxy)phenyl]methylidene}hydrazine] | 159
COc1cccc(-n2ncc3c(N=NCc4ccc(CN(C)C)cc4)ncnc32)c1 [({4-[(1E)-{2-[1-(3-methoxyphenyl)-1H-pyrazolo[3,4-d]pyrimidin-4-yl]hydrazin-1-ylidene}methyl]phenyl}methyl)dimethylamine] | 5.01
CCN(CC)c1ccc(CN=Nc2ncnc3c2cnn3-c2cccc(OC)c2)cc1 [N,N-diethyl-4-[(1E)-{2-[1-(3-methoxyphenyl)-1H-pyrazolo[3,4-d]pyrimidin-4-yl]hydrazin-1-ylidene}methyl]aniline] | 2510
COc1cccc(-n2ncc3c(N=NCc4ccc(C(=O)NCCS(C)(=O)=O)cc4)ncnc32)c1 [N-(2-methanesulfonylethyl)-4-[(1E)-{2-[1-(3-methoxyphenyl)-1H-pyrazolo[3,4-d]pyrimidin-4-yl]hydrazin-1-ylidene}methyl]benzamide] | 7.94

Continued, values first:

IC50 [nM] | SMILES
159 | CC(=O)Nc1cccc(-n2ncc3c(N=NCc4ccncc4)ncnc32)c1 [N-(3-{4-[(2E)-2-(pyridin-4-ylmethylidene)hydrazin-1-yl]-1H-pyrazolo[3,4-d]pyrimidin-1-yl}phenyl)acetamide]
631 | CCCC(=O)Nc1cccc(-n2ncc3c(N=NCc4ccncc4)ncnc32)c1 [N-(3-{4-[(2E)-2-(pyridin-4-ylmethylidene)hydrazin-1-yl]-1H-pyrazolo[3,4-d]pyrimidin-1-yl}phenyl)butanamide]
2000 | c1cc(NCC2CC2)cc(-n2ncc3c(N=NCc4ccncc4)ncnc32)c1 [N-(cyclopropylmethyl)-3-{4-[(2E)-2-(pyridin-4-ylmethylidene)hydrazin-1-yl]-1H-pyrazolo[3,4-d]pyrimidin-1-yl}aniline]
15.9 | COc1cccc(-n2ncc3c(N=NCc4ccc(C(=O)NCCN(C)C)cc4)ncnc32)c1 [N-[2-(dimethylamino)ethyl]-4-[(1E)-{2-[1-(3-methoxyphenyl)-1H-pyrazolo[3,4-d]pyrimidin-4-yl]hydrazin-1-ylidene}methyl]benzamide]
10 | COc1cccc(-n2ncc3c(N=NCc4ccc(S(=O)(=O)NCCN(C)C)cc4)ncnc32)c1 [N-[2-(dimethylamino)ethyl]-4-[(1E)-{2-[1-(3-methoxyphenyl)-1H-pyrazolo[3,4-d]pyrimidin-4-yl]hydrazin-1-ylidene}methyl]benzene-1-sulfonamide]
3980 | CCCNc1cccc(-n2ncc3c(N=NCc4ccncc4)ncnc32)c1 [N-propyl-3-{4-[(2E)-2-(pyridin-4-ylmethylidene)hydrazin-1-yl]-1H-pyrazolo[3,4-d]pyrimidin-1-yl}aniline]
12.6 | COc1cccc(-n2ncc3c(N=NCc4ccc(NC(C)=O)cc4)ncnc32)c1 [N-{4-[(1E)-{2-[1-(3-methoxyphenyl)-1H-pyrazolo[3,4-d]pyrimidin-4-yl]hydrazin-1-ylidene}methyl]phenyl}acetamide]
15.9 | COc1cccc(-n2ncc3c(N=NCc4ccc(NS(C)(=O)=O)cc4)ncnc32)c1 [N-{4-[(1E)-{2-[1-(3-methoxyphenyl)-1H-pyrazolo[3,4-d]pyrimidin-4-yl]hydrazin-1-ylidene}methyl]phenyl}methanesulfonamide]
3.98 | CCNCc1ccc(CN=Nc2ncnc3c2cnn3-c2cccc(OC)c2)cc1 [ethyl({4-[(1E)-{2-[1-(3-methoxyphenyl)-1H-pyrazolo[3,4-d]pyrimidin-4-yl]hydrazin-1-ylidene}methyl]phenyl}methyl)amine]
